From patent publication US9487502B2, “Chemical compounds” (Syngenta Limited, priority 2013, dated 2016)

Key:
Type in all cases: in vivo
Design in all cases: key: 5=total damage to plant; 0=no damage to plant
[1] = system: Abutilon theophrasti; assay: Pre-emergence herbicidal activity, ABUTH; details: 1000 g/Ha, sprayed pre-emergence, evaluated after 13 days, scale 0-5
Protocol: (§1) Seeds of a variety of test species were sown in standard soil in pots. After cultivation for one day (pre-emergence) under controlled conditions in a glasshouse (at 24/16° C., day/night; 14 hours light; 65% humidity), the plants were sprayed with an aqueous spray solution derived from the formulation of the technical active ingredient in acetone/water (50:50) solution containing 0.5% Tween 20 (polyoxyethelyene sorbitan monolaurate, CAS RN 9005-64-5). The test plants were then grown in a glasshouse under controlled conditions (at 24/16° C., day/night; 14 hours light; 65% humidity) and watered twice daily. After 13 days, the test was evaluated (5=total damage to plant; 0=no damage to plant).

[2] = system: Alopecurus myosuroides; assay: Pre-emergence herbicidal activity, ALOMY; details: 1000 g/Ha, sprayed pre-emergence, evaluated after 13 days, scale 0-5
Protocol: as §1

[3] = system: Zea mays; assay: Pre-emergence herbicidal activity, ZEAMX; details: 1000 g/Ha, sprayed pre-emergence, evaluated after 13 days, scale 0-5
Protocol: as §1

[4] = system: Setaria faberi; assay: Pre-emergence herbicidal activity, SETFA; details: 1000 g/Ha, sprayed pre-emergence, evaluated after 13 days, scale 0-5
Protocol: as §1

[5] = system: Alopecurus myosuroides; assay: Post-emergence herbicidal activity, ALOMY; details: 1000 g/Ha, sprayed post-emergence (8 days cultivation), evaluated after 13 days, scale 0-5
Protocol: (§2) Seeds of a variety of test species were sown in standard soil in pots. After 8 days cultivation (post-emergence) under controlled conditions in a glasshouse (at 24/16° C., day/night; 14 hours light; 65% humidity), the plants were sprayed with an aqueous spray solution derived from the formulation of the technical active ingredient in acetone/water (50:50) solution containing 0.5% Tween 20 (polyoxyethelyene sorbitan monolaurate, CAS RN 9005-64-5). The test plants were then grown in a glasshouse under controlled conditions (at 24/16° C., day/night; 14 hours light; 65% humidity) and watered twice daily. After 13 days, the test was evaluated (5=total damage to plant; 0=no damage to plant).

[6] = system: Amaranthus retroflexus; assay: Pre-emergence herbicidal activity, AMARE; details: 1000 g/Ha, sprayed pre-emergence, evaluated after 13 days, scale 0-5
Protocol: as §1

[7] = system: Echinochloa crus-galli; assay: Post-emergence herbicidal activity, ECHCG; details: 1000 g/Ha, sprayed post-emergence (8 days cultivation), evaluated after 13 days, scale 0-5
Protocol: as §2

[8] = system: Amaranthus retroflexus; assay: Post-emergence herbicidal activity, AMARE; details: 1000 g/Ha, sprayed post-emergence (8 days cultivation), evaluated after 13 days, scale 0-5
Protocol: as §2

[9] = system: Setaria faberi; assay: Post-emergence herbicidal activity, SETFA; details: 1000 g/Ha, sprayed post-emergence (8 days cultivation), evaluated after 13 days, scale 0-5
Protocol: as §2

[10] = system: Zea mays; assay: Post-emergence herbicidal activity, ZEAMX; details: 1000 g/Ha, sprayed post-emergence (8 days cultivation), evaluated after 13 days, scale 0-5
Protocol: as §2

[11] = system: Echinochloa crus-galli; assay: Pre-emergence herbicidal activity, ECHCG; details: 1000 g/Ha, sprayed pre-emergence, evaluated after 13 days, scale 0-5
Protocol: as §1

[12] = system: Abutilon theophrasti; assay: Post-emergence herbicidal activity, ABUTH; details: 1000 g/Ha, sprayed post-emergence (8 days cultivation), evaluated after 13 days, scale 0-5
Protocol: as §2

CCN1C(=O)N(c2cc(C(C)(C)C)ncn2)C(O)C1OC (stereo not drawn) [Example A26]
ABUTH damage score, application pre-emergence [1]: 2
ALOMY damage score, application pre-emergence [2]: 0
ZEAMX damage score, application pre-emergence [3]: 1
SETFA damage score, application pre-emergence [4]: 0
ALOMY damage score, application post-emergence [5]: 1
AMARE damage score, application pre-emergence [6]: 1
ECHCG damage score, application post-emergence [7]: 0
AMARE damage score, application post-emergence [8]: 0
SETFA damage score, application post-emergence [9]: 2
ZEAMX damage score, application post-emergence [10]: 1
ECHCG damage score, application pre-emergence [11]: 0
ABUTH damage score, application post-emergence [12]: 1

CCOC1C(O)N(c2cc(C(C)(C)C)ncn2)C(=O)N1CC (stereo not drawn) [Example A27]
ABUTH damage score, application pre-emergence [1]: 1
ALOMY damage score, application pre-emergence [2]: 0
ZEAMX damage score, application pre-emergence [3]: 0
SETFA damage score, application pre-emergence [4]: 0
ALOMY damage score, application post-emergence [5]: 1
AMARE damage score, application pre-emergence [6]: 1
ECHCG damage score, application post-emergence [7]: 0
AMARE damage score, application post-emergence [8]: 0
SETFA damage score, application post-emergence [9]: 3
ZEAMX damage score, application post-emergence [10]: 2
ECHCG damage score, application pre-emergence [11]: 0
ABUTH damage score, application post-emergence [12]: 4

CCCOC1C(OCCC)N(c2cc(C(C)(C)C)ncn2)C(=O)N1C (stereo not drawn) [Example A28]
ABUTH damage score, application pre-emergence [1]: 0
ALOMY damage score, application pre-emergence [2]: 0
ZEAMX damage score, application pre-emergence [3]: 0
SETFA damage score, application pre-emergence [4]: 0
ALOMY damage score, application post-emergence [5]: 0
AMARE damage score, application pre-emergence [6]: 0
ECHCG damage score, application post-emergence [7]: 0
AMARE damage score, application post-emergence [8]: 0
SETFA damage score, application post-emergence [9]: 0
ZEAMX damage score, application post-emergence [10]: 0
ECHCG damage score, application pre-emergence [11]: 0
ABUTH damage score, application post-emergence [12]: 0

C=CC1C(O)N(c2cc(C(C)(C)C)ncn2)C(=O)N1C (stereo not drawn) [Example A29]
ABUTH damage score, application pre-emergence [1]: 5
ALOMY damage score, application pre-emergence [2]: 4
ZEAMX damage score, application pre-emergence [3]: 1
SETFA damage score, application pre-emergence [4]: 4
ALOMY damage score, application post-emergence [5]: 4
AMARE damage score, application pre-emergence [6]: 5
ECHCG damage score, application post-emergence [7]: 4
AMARE damage score, application post-emergence [8]: 5
SETFA damage score, application post-emergence [9]: 5
ZEAMX damage score, application post-emergence [10]: 1
ECHCG damage score, application pre-emergence [11]: 4
ABUTH damage score, application post-emergence [12]: 5

COCC1NC(=O)N(c2cc(C(C)(C)C)ncn2)C1O (stereo not drawn) [Example A30]
ABUTH damage score, application pre-emergence [1]: 5
ALOMY damage score, application pre-emergence [2]: 4
ZEAMX damage score, application pre-emergence [3]: 1
SETFA damage score, application pre-emergence [4]: 4
ALOMY damage score, application post-emergence [5]: 4
AMARE damage score, application pre-emergence [6]: 5
ECHCG damage score, application post-emergence [7]: 3
AMARE damage score, application post-emergence [8]: 5
SETFA damage score, application post-emergence [9]: 4
ZEAMX damage score, application post-emergence [10]: 1
ECHCG damage score, application pre-emergence [11]: 4
ABUTH damage score, application post-emergence [12]: 5

CN1C(=O)N(c2cc(C(C)(C)C)ncn2)C(O)C1C(F)(F)F (stereo not drawn) [Example A31]
ABUTH damage score, application pre-emergence [1]: 2
ALOMY damage score, application pre-emergence [2]: 3
ZEAMX damage score, application pre-emergence [3]: 0
SETFA damage score, application pre-emergence [4]: 4
ALOMY damage score, application post-emergence [5]: 4
AMARE damage score, application pre-emergence [6]: 2
ECHCG damage score, application post-emergence [7]: 3
AMARE damage score, application post-emergence [8]: 1
SETFA damage score, application post-emergence [9]: 5
ZEAMX damage score, application post-emergence [10]: 1
ECHCG damage score, application pre-emergence [11]: 3
ABUTH damage score, application post-emergence [12]: 5

CC1NC(=O)N(c2cc(C(C)(C)C)ncn2)C1O (stereo not drawn) [Example A32]
ABUTH damage score, application pre-emergence [1]: 3
ALOMY damage score, application pre-emergence [2]: 1
ZEAMX damage score, application pre-emergence [3]: 0
SETFA damage score, application pre-emergence [4]: 1
ALOMY damage score, application post-emergence [5]: 3
AMARE damage score, application pre-emergence [6]: 2
ECHCG damage score, application post-emergence [7]: 2
AMARE damage score, application post-emergence [8]: 2
SETFA damage score, application post-emergence [9]: 2
ZEAMX damage score, application post-emergence [10]: 1
ECHCG damage score, application pre-emergence [11]: 1
ABUTH damage score, application post-emergence [12]: 5

CN1C(=O)N(c2cc(C(C)(C)C)ncn2)C(O)C1CC(F)(F)F (stereo not drawn) [Example A34]
ABUTH damage score, application pre-emergence [1]: 4
ALOMY damage score, application pre-emergence [2]: 1
ZEAMX damage score, application pre-emergence [3]: 0
SETFA damage score, application pre-emergence [4]: 2
ALOMY damage score, application post-emergence [5]: 3
AMARE damage score, application pre-emergence [6]: 5
ECHCG damage score, application post-emergence [7]: 0
AMARE damage score, application post-emergence [8]: 2
SETFA damage score, application post-emergence [9]: 3
ZEAMX damage score, application post-emergence [10]: 2
ECHCG damage score, application pre-emergence [11]: 1
ABUTH damage score, application post-emergence [12]: 5

CC1C(OC(=O)Nc2ccc([N+](=O)[O-])cc2)N(c2cc(C(C)(C)C)ncn2)C(=O)N1C (stereo not drawn) [Example A36]
ABUTH damage score, application pre-emergence [1]: 5
ALOMY damage score, application pre-emergence [2]: 4
ZEAMX damage score, application pre-emergence [3]: 3
SETFA damage score, application pre-emergence [4]: 4
ALOMY damage score, application post-emergence [5]: 5
AMARE damage score, application pre-emergence [6]: 5
ECHCG damage score, application post-emergence [7]: 5
AMARE damage score, application post-emergence [8]: 5
SETFA damage score, application post-emergence [9]: 5
ZEAMX damage score, application post-emergence [10]: 5
ECHCG damage score, application pre-emergence [11]: 4
ABUTH damage score, application post-emergence [12]: 5
